In patent US20230210096A1, “NON-HUMAN ANIMAL MODELS FOR AGING AND/OR NEURODEGENERATION” (University of Pittsburgh - Of the Commonwealth System of …, priority 2020, published 2023):

Columns and labels:
[1] = tested on: AANAT-KO primary cerebrocortical neurons (PCNs); assay: MMP (TMRM) and mitochondrial ROS (Mitosox) in PCNs; type: cell-based, mouse; conditions: AANAT-KO PCN, DIV21, melatonin 5 µM in culture medium
Description: (§1) N2a cells were obtained from ATCC and grown in DMEM/F12 medium with 10% FBS. AANAT-KO N2a cells were generated as described elsewhere (see, e.g., Suofu et al., PNAS 114:E7997-E8006 (2017)). N2a cells were differentiated by exposing them to 10 µM retinoic acid (RA) with 2% fetal bovine serum (FBS) for 8 days. Every alternate day, the culture medium of differentiating N2a cells was replaced with fresh medium containing 10 µM of RA. N2a cells were treated with 5 µM melatonin during differentiation to evaluate the effect of melatonin in WT and AANAT-KO N2a differentiated neurons. Fresh melatonin was added with RA every alternate day for 8 days. All experiments were performed in 8-day-differentiated neurons with or without melatonin. STHdh^Q7/Q7 (Q7) STHdh^Q111/Q111 (Q111) cells were grown in MEM culture medium with 10% FBS. […]
(§2) ROS accumulation in cells was estimated by either DCFDA for total ROS or Mitosox for mitochondrial ROS. Cells were incubated in 20 µM DCFDA for 45 minutes or 5 µM Mitosox for 15 minutes at 37° C. and fluorescence was measured using plate reader or flowcytometry. […] Cells were incubated in 2 µg/mL JC-1 or 25 nM TMRM for 30 minutes at 37° C. and fluorescence were measured using plate reader or flowcytrometry. […]

[2] = tested on: AANAT-KO primary cerebrocortical neurons (PCNs); assay: qPCR of cytosolic mtDNA in PCNs; type: cell-based, mouse; conditions: AANAT-KO PCN, DIV21, melatonin 5 µM
Description: (§3) N2a cells were obtained from ATCC and grown in DMEM/F12 medium with 10% FBS. AANAT-KO N2a cells were generated as described elsewhere (see, e.g., Suofu et al., PNAS 114:E7997-E8006 (2017)). N2a cells were differentiated by exposing them to 10 µM retinoic acid (RA) with 2% fetal bovine serum (FBS) for 8 days. Every alternate day, the culture medium of differentiating N2a cells was replaced with fresh medium containing 10 µM of RA. N2a cells were treated with 5 µM melatonin during differentiation to evaluate the effect of melatonin in WT and AANAT-KO N2a differentiated neurons. Fresh melatonin was added with RA every alternate day for 8 days. All experiments were performed in 8-day-differentiated neurons with or without melatonin. STHdh^Q7/Q7 (Q7) STHdh^Q111/Q111 (Q111) cells were grown in MEM culture medium with 10% FBS. Differentiation of Q7 and Q111 cells was induced by exposing cells to 10 ng/mL α-FGF, 250 µM 3-isobutyl-1-methylxanthine (IBMX), 200 nM phorbol 12-myristate 13-acetate (TPA), 50 µM forskolin and 10 µM dopamine for 2 days. […]
(§4) For measurement of mtDNA in cytosol in cells, cell fractions were prepared using Cell Fractionation Kit (Abeam). […] The copy number of mtDNA encoding cytochrome c oxidase 1 (mt-CO1), mt-Dloop1 and mt-Dloop3 was measured by quantitative real-time PCR with same volume of DNA solution. […]

[3] = tested on: AANAT-KO primary cerebrocortical neurons (PCNs); assay: Immunoblot of cGAS, STING, IRF3, caspase-1 in PCNs; type: cell-based, mouse; conditions: AANAT-KO PCN, DIV21, melatonin 5 µM
Description: as §1, with “melatonin.” for “melatonin. STHdh^Q7/Q7 (Q7) STHdh^Q111/Q111 (Q111) cells were grown in MEM culture medium with 10% FBS.”
(§5) Samples (isolated mitochondria or whole-cell lysates) were cleared by centrifugation at 20,000 x g, equal amounts of protein were separated on Novex 4-12% gradient polyacrylamide gels (Invitrogen), and proteins transferred overnight onto 0.45 µm polyvinylidene difluoride (PVDF) membranes. The membranes were then incubated with the indicated primary antibodies overnight at 4° C. followed by incubation with secondary antibodies (Li-Cor) for 1 hour at room temperature, which were detected using the Odyssey CLx Infrared Imaging System (Li-Cor). Band intensities were quantified using Image Studio (Li-Cor).

[4] = tested on: AANAT-KO primary cerebrocortical neurons (PCNs); assay: Cytokine ELISA in culture medium of PCNs; type: cell-based, mouse; conditions: AANAT-KO PCN, DIV21, melatonin 5 µM
Description: (§6) N2a cells were obtained from ATCC and grown in DMEM/F12 medium with 10% FBS. AANAT-KO N2a cells were generated as described elsewhere (see, e.g., Suofu et al., PNAS 114:E7997-E8006 (2017)). N2a cells were differentiated by exposing them to 10 µM retinoic acid (RA) with 2% fetal bovine serum (FBS) for 8 days. Every alternate day, the culture medium of differentiating N2a cells was replaced with fresh medium containing 10 µM of RA. N2a cells were treated with 5 µM melatonin during differentiation to evaluate the effect of melatonin in WT and AANAT-KO N2a differentiated neurons. Fresh melatonin was added with RA every alternate day for 8 days. All experiments were performed in 8-day-differentiated neurons with or without melatonin. STHdh^Q7/Q7 (Q7) STHdh^Q111/Q111 (Q111) cells were grown in MEM culture medium with 10% FBS. Differentiation of Q7 and Q111 cells was induced by exposing cells to 10 ng/mL α-FGF, 250 µM 3-isobutyl-1-methylxanthine (IBMX), 200 nM phorbol 12-myristate 13-acetate (TPA), 50 µM forskolin and 10 µM dopamine for 2 days. AANAT-KO and littermate WT primary cerebro-cortical neuron (PCN) cultures were prepared from embryonic day (E) 15.5 embryos, as described elsewhere (see, e.g., Yano et al., Nature neuroscience 17:822 (2014)).

[5] = tested on: AANAT-KO differentiated N2a cells; assay: 8-OHDG immunofluorescence (mtDNA oxidative damage) in differentiated N2a cells; type: cell-based, mouse; conditions: melatonin 5 µM
Description: as §6, with “(2014)). […]” for “(2014)).”

[6] = tested on: mitochondria of AANAT-KO differentiated N2a cells; assay: Mitochondrial in vitro protein import assay (pOTC/mOTC); type: cell-based, mouse; conditions: melatonin
Description: as §1
Ornithine transcarbamylase (OTC) precursor cDNA in pGEM-3Zf(+)-pOTC plasmid was transcribed and translated in vitro using the TNT Coupled Reticulocyte Lysate System (Promega) in the presence of [^35S] methionine (PerkinElmer). […] Mature OTC, which represents the cleaved protein after translocation into the mitochondrial matrix, was quantified by ImageJ (NIH). […]

[7] = tested on: AANAT-KO differentiated N2a cells; assay: ROS (Mitosox) and MMP (JC-1/TMRM) in differentiated N2a cells; type: cell-based, mouse; conditions: melatonin 5 µM
Description: as §1, §2

[8] = tested on: AANAT-KO differentiated N2a cells; assay: qPCR of cytosolic mtDNA in differentiated N2a cells; type: cell-based, mouse; conditions: melatonin 5 µM
Description: as §3, §4

[9] = tested on: AANAT-KO differentiated N2a cells; assay: Immunoblot of inflammatory, caspase and synaptic markers in differentiated N2a cells; type: cell-based, mouse; conditions: melatonin 5 µM
Description: as §6, §5

[10] = tested on: AANAT-KO differentiated N2a cells; assay: Cytokine ELISA in culture medium of differentiated N2a cells; type: cell-based, mouse; conditions: melatonin 5 µM
Description: as §6

[11] = tested on: AANAT-KO differentiated N2a cells; assay: Neurite length and number by βIII-tubulin staining; type: cell-based, mouse; conditions: melatonin 5 µM
Description: as §6, with “(2014)). […]” for “(2014)).”

[12] = tested on: R6/2 mice; assay: Melatonin injection in R6/2 mouse model of HD: cytosolic mtDNA, cGAS/STING/IRF3, cytokines; type: in vivo; conditions: melatonin 30 mg/kg injected daily from 6 to 9 weeks of age
Description: Since melatonin is protective in R6/2 mice and melatonin is deficient in humans with HD, it was evaluated whether exogenous melatonin reduces mtDNA release and consequent inflammation. Six-week old R6/2 mice were injected with melatonin daily for 3 weeks. Melatonin inhibited mtDNA release and ameliorated cGAS/STING/IRF3 upregulation in cortex and striatum in 9-week R6/2 mice (FIGS. 12D and E, and FIG. 13A).
R6/2 mice, which carry the promoter sequence and exon 1 of a mutant human HTT gene with approximately 150 CAG repeats, were obtained from JAX (Bar Harbor, ME). A colony was maintained by breeding R6/2 males with B6CBAF1 females (JAX). CAG repeat length was determined for every mouse in the colony and mice with 150 +/-10 CAG repeats were used. PCR genotyping was performed. Three, six and Nine week-old R6/2 mice were used in the experiments.
as §5
Total RNA was isolated using the RNeasy Plus kit (Qiagen) and quantified using a ND-1000 spectrophotometer. cDNA was prepared using 1000 ng total RNA by a reverse transcription PCR (RT-PCR) using a high capacity cDNA reverse transcription kit (Applied Biosystems). qPCR was performed on cDNA using SYBR Green chemistry. qPCR was performed on a Biorad CFX touch PCR using Applied Biosystems PowerUp SYBR green master mix. Fold changes in expression were calculated by the ΔΔCt method using mouse β-Actin as an endogenous control for mRNA expression. All fold changes were expressed normalized to the untreated control. […]

[13] = tested on: Q111 cells; assay: ROS (Mitosox) and MMP (TMRM) in differentiated Q7 and Q111 neurons; type: cell-based, mice; conditions: Q111 cells transfected with DNase 1, 2 µg/mL, LDH control
Description: as §1, §2

[14] = tested on: Q7 and Q111 differentiated neurons; assay: Immunoblot of cGAS, IRF3, STING in differentiated Q7 and Q111 neurons; type: cell-based, mice; conditions: differentiated Q111 neurons transfected with DNase 1, LDH control
Description: as §1, with “melatonin.” for “melatonin. STHdh^Q7/Q7 (Q7) STHdh^Q111/Q111 (Q111) cells were grown in MEM culture medium with 10% FBS.”
as §5, with “Studio (Li-Cor). […]” for “Studio (Li-Cor).”

[15] = tested on: Q7 and Q111 differentiated neurons; assay: Cytokine ELISA and mRNA qPCR in differentiated Q7 and Q111 neurons; type: cell-based, mice; conditions: Q111 differentiated neurons transfected with DNase 1, LDH control
Description: as §1
Total RNA was isolated using the RNeasy Plus kit (Qiagen) and quantified using a ND-1000 spectrophotometer. cDNA was prepared using 1000 ng total RNA by a reverse transcription PCR (RT-PCR) using a high capacity cDNA reverse transcription kit (Applied Biosystems). qPCR was performed on cDNA using SYBR Green chemistry. qPCR was performed on a Biorad CFX touch PCR using Applied Biosystems PowerUp SYBR green master mix. Fold changes in expression were calculated by the ΔΔCt method using mouse β-Actin as an endogenous control for mRNA expression. […]

With `COc1ccc2[nH]cc(CCNC(C)=O)c2c1` [melatonin, Melatonin] the “MMP (TMRM fluorescence)” value [1] was “restored”, the “mitochondrial ROS (Mitosox)” value [1] was “restored” and the “cytosolic mtDNA (mt-CO1, mt-Dloop1, mt-Dloop3)” value [2] was “inhibited”. For the same molecule, the cGAS/STING/IRF3 protein levels [3] was “inhibited”, the caspase-1 [3] was “inhibited” and the proinflammatory cytokines secretion [4] was “inhibited”. For the same molecule, the “mtDNA damage (8-OHDG)” value [5] was “mitigated”, the mitochondrial protein import [6] was “mitigated” and the “MMP (JC-1 fluorescence)” value [7] was “mitigated”. For the same molecule, the “ROS (Mitosox fluorescence)” value [7] was “mitigated”, the “mtDNA release (cytosolic mtDNA)” value [8] was “prevented” and the caspase-3 activation [9] was “inhibited”. For the same molecule, the “expression of PSD95 (post-synaptic marker)” value [9] was “increased”, the “expression of synaptophysin (pre-synaptic marker)” value [9] was “increased” and the “inflammatory signaling pathways (Nf-kβ phosphorylation, caspase-1 cleavage, cGAS/STING/IRF3 levels)” value [9] was “inhibited”. For the same molecule, the pro-inflammatory cytokines secretion [10] was “inhibited”, the average neurite length [11] was “rescued” and the average neurite number [11] was “rescued”. The “expression of pro-inflammatory cytokines in brain” value [12] was “reduced”, the cGAS/STING/IRF3 upregulation ([12]; cortex and striatum) was “ameliorated” and the “mtDNA release (cytosolic mtDNA)” value ([12]; cortex and striatum) was “inhibited”.

B1: DNAse1: DNAse1 protein transfected to degrade cytosolic DNA (protein, UniProt P24855 23-282, looked up)
Deoxyribonuclease-1: LKIAAFNIQTFGETKMSNATLVSYIVQILSRYDIALVQEVRDSHLTAVGKLLDNLNQDAPDTYHYVVSEPLGRNSYKERYLFVYRPDQVSAVDSYYYDDGCEPCGNDTFNREPAIVRFFSRFTEVREFAIVPLHAAPGDAVAEIDALYDVYLDVQEKWGLEDVMLMGDFNAGCSYVRPSQWSSIRLWTSPTFQWLIPDSADTTATPTHCAYDRIVVAGMLLRGAVVPDSALPFNFQAAYGLSDQLAQAISDHYPVEVMLK
With B1 the “elevated ROS (Mitosox)” value [13] was “did not alter”, the “reduced MMP (TMRM)” value [13] was “did not alter” and the cGAS/STING/IRF3 levels [14] was “inhibited”. For the same molecule, the proinflammatory cytokine secretion [15] was “inhibited”.
